Laboratory results published in ChEMBL document CHEMBL5137095, “N-Benzyl Benzamide Derivatives as Selective Sub-Nanomolar Butyrylcholinesterase Inhibitors for Possible Treatment in Advanced Alzheimer's Disease” (J Med Chem, 2022).
Active and inactive are the calls of the source. The calls are words filed in the database; no cut-off is given here.

Tests used:
SH-SY5Y [1] = test: Neuroprotective activity against amyloid beta (1 to 42)-induced cell damage in human SH-SY5Y cells assessed as inhibition of ROS level pretreated for 2 hrs followed by amyloid beta (1 to 42) addition and measured after 24 hrs by DCFH-DA staining based fluorescence microscopy analysis; format: functional; conditions: time 26.0 hrs
Mus musculus [2] = test: Cognitive enhancing effect in amyloid beta (1 to 42)-induced ICR mouse model assessed as reduction in escape latency at 0.5 mg/kg, icv measured on day 14 by Morris Water maze method; format: functional, organism-based; conditions: time 14.0 day
Mus musculus [3] = test: Cognitive enhancing effect in amyloid beta (1 to 42)-induced ICR mouse model assessed as reduction in amyloid beta (1 to 42) peptide level in brain administered via icv measured on day 14 by ELISA; format: functional, organism-based; conditions: dose 0.5-10 mg/kg, time 14.0 day, DDE = dose-dependent effect
Mus musculus [4] = test: Cognitive enhancing effect in amyloid beta (1 to 42)-induced ICR mouse model assessed as increase in ACh level in brain at 0.5 to 10, icv measured on day 14 by ELISA; format: functional, organism-based; conditions: dose 0.5-10 mg/kg, time 14.0 day
Mus musculus [5] = test: Cognitive enhancing effect in amyloid beta (1 to 42)-induced ICR mouse model assessed as decrease in IFN-gamma level in brain at 0.5 to 10, icv measured on day 14 by ELISA; format: functional, organism-based; conditions: dose 0.5-10 mg/kg, time 14.0 day
Mus musculus [6] = test: Cognitive enhancing effect in amyloid beta (1 to 42)-induced ICR mouse model assessed as decrease in TNF-alpha level in brain at 0.5 to 10, icv measured on day 14 by ELISA; format: functional, organism-based; conditions: dose 0.5-10 mg/kg, time 14.0 day
PC-12 [7] = test: Neuroprotective activity against H2O2-induced cell damage in rat PC-12 cells at 5 uM pretreated for 2 hrs followed by H2O2 addition and measured after 24 hrs by MTT assay; format: functional, cell-based
Mus musculus [8] = test: Cognitive enhancing effect in amyloid beta (1 to 42)-induced ICR mouse model assessed as reduction in latency at 1 mg/kg, icv measured on day 14 by Morris Water maze method; format: functional, organism-based
Mus musculus [9] = test: Cognitive enhancing effect in amyloid beta (1 to 42)-induced ICR mouse model assessed as reduction in latency at 2.5 mg/kg, icv measured on day 14 by Morris Water maze method; format: functional, organism-based
Mus musculus [10] = test: Cognitive enhancing effect in amyloid beta (1 to 42)-induced ICR mouse model assessed as reduction in amyloid beta (1 to 42) peptide level in brain at 0.5 to 10 mg/kg, icv measured on day 14 by ELISA; format: functional, organism-based; conditions: dose 0.5-10 mg/kg
PC-12 [11] = test: Neuroprotective activity against H2O2-induced cell damage in rat PC-12 cells pretreated for 2 hrs followed by H2O2 addition and measured after 24 hrs by MTT assay; format: functional, cell-based; conditions: dose 2.5-10 µM, time 26.0 hrs, DDE = dose-dependent effect
SH-SY5Y [12] = test: Neuroprotective activity against amyloid beta (1 to 42)-induced cell damage in human SH-SY5Y cells pretreated for 2 hrs followed by amyloid beta (1 to 42) addition and measured after 24 hrs by MTT assay; format: functional, cell-based; conditions: dose 0.5-2 µM, time 26.0 hrs, DDE = dose-dependent effect
SH-SY5Y [13] = test: Neuroprotective activity against GA-induced cell damage in human SH-SY5Y cells pretreated for 2 hrs followed by GA addition and measured after 24 hrs by MTT assay; format: functional, cell-based; conditions: dose 0.1-5 µM, time 26.0 hrs, DDE = dose-dependent effect

## CCN(CC)Cc1ccccc1CNC(=O)c1cc(C)cc(NC(=O)c2ccc(F)cc2)c1
SH-SY5Y [1]
  Activity: Active
Mus musculus [2]
  Activity: Active
Mus musculus [3]
  Activity: Dde
Mus musculus [4]
  Activity: Active
Mus musculus [5]
  Activity: Active
Mus musculus [6]
  Activity: Active

## CCCN(CCC)Cc1ccccc1CNC(=O)c1cccc(NC(=O)c2cccs2)c1
PC-12 [7]
  Activity: Active

## CCN(C)C(=O)Oc1cccc([C@H](C)N(C)C)c1
Mus musculus [8]
  Activity: Active
Mus musculus [9]
  Activity: Active

## CN(C)Cc1ccccc1CNC(=O)c1cccc(NC(=O)c2cccs2)c1
PC-12 [7]
  Activity: Active

## CCN(CC)Cc1ccccc1CNC(=O)c1cccc(NC(=O)c2ccc(F)cc2)c1
Mus musculus [10]
  Activity: Active
PC-12 [7]
  Activity: Active
PC-12 [11]
  Activity: Dde
SH-SY5Y [12]
  Activity: Dde
SH-SY5Y [1]
  Activity: Active
Mus musculus [2]
  Activity: Active
Mus musculus [4]
  Activity: Active
Mus musculus [5]
  Activity: Active
Mus musculus [6]
  Activity: Active

## CCN(CC)Cc1ccccc1CNC(=O)c1cccc(NC(=O)c2ccc(F)cc2)c1C
SH-SY5Y [1]
  Activity: Active

## COc1ccc2c3c1O[C@H]1C[C@@H](O)C=C[C@@]31CCN(C)C2
Mus musculus [8]
  Activity: Active
Mus musculus [9]
  Activity: Active

## CCN(CC)Cc1ccccc1CNC(=O)c1cc(Br)cc(NC(=O)c2ccc(F)cc2)c1
SH-SY5Y [13]
  Activity: Dde
